# Assay results from patent US12516016B2, “GPX4 inhibitors, pharmaceutical compositions thereof, and their use for treating GPX4-mediated diseases” (EUBULUS BIOTHERAPEUTICS (HONG KONG) LIMITED, priority 2020, dated 2026).
# System: hepatocellular carcinoma cell line Hub-7
# Assay: Cell proliferation assay (CELL-TITER GLO cell viability)
# Type: cell-based
# Conditions: 24 h, Hub-7 cells, 24 h incubation, read-out: Inhibition of Cell Proliferation EC50
# Description: The activity of a test compound was determined in a cell proliferation assay using the hepatocellular carcinoma cell line […]. Cells (4,000 cells per well) were seeded in a 96-well tissue culture plate. After incubated overnight, a test compound was added at predetermined concentrations, starting with 10 μM and followed by 3-fold serial dilution. After the cells were incubated for 24 h, cell viability was determined using a CELL-TITER GLO® assay. The CELL-TITER GLO® reagent (50 μL) was added to each well and the luminescence was measured by a multimode microplate reader after a brief period of shaking. EC50 values were determined for the test compound. The results are summarized in Table 1, wherein A represents a value no greater than 100 nM, B represents a value greater than 100 nM but no greater than 500 nM, C represents a value greater than 500 nM but no greater than 2 μM, D represents a value greater than 2 μM but no greater than 10 μM; and E represents a value greater than 10 μM.
row,SMILES,EC50 [µM]
1,"C#CC(=O)N(c1cccc(NC(C)=O)c1)C(C(=O)NCc1ccccc1)c1cccc(N)c1 (stereo not shown) [A44, N-(3-Acetamidophenyl)-N-(1-(3-aminophenyl)-2-(benzylamino)-2-oxoethyl)-propiolamide]",2 to 10
2,"C#CC(=O)N(c1ccc(O)cc1)C(C(=O)NCc1ccccc1)c1cccc(N)c1 (stereo not shown) [A45, N-(1-(3-Aminophenyl)-2-(benzylamino)-2-oxoethyl)-N-(4-hydroxyphenyl)-propiolamide]",2 to 10
3,"C#CC(=O)N(c1cccc(C(N)=O)c1)C(C(=O)NCc1ccccc1)c1cccc(N)c1 (stereo not shown) [A47, 3-(N-(1-(3-Aminophenyl)-2-(benzylamino)-2-oxoethyl)propiolamido)-benzamide]",> 10
4,"C#CC(=O)N(c1ccc(S(N)(=O)=O)cc1)C(C(=O)NCc1ccccc1)c1cccc(N)c1 (stereo not shown) [A50, N-(1-(3-Aminophenyl)-2-(benzylamino)-2-oxoethyl)-N-(4-sulfamoylphenyl)-propiolamide]",> 10
5,"C#CC(=O)N(c1cccc(CO)c1)C(C(=O)NCc1ccccc1)c1ccc(N)cc1 (stereo not shown) [A56, N-(1-(4-Aminophenyl)-2-(benzylamino)-2-oxoethyl)-N-(3-(hydroxymethyl)-phenyl)propiolamide]",2 to 10
6,"C#CC(=O)N(c1cccc(O)c1)C(C(=O)NCc1ccccc1)c1ccc(N)cc1 (stereo not shown) [A58, N-(1-(4-Aminophenyl)-2-(benzylamino)-2-oxoethyl)-N-(3-hydroxyphenyl)-propiolamide]",2 to 10
7,"C#CC(=O)N(c1cccc(C(N)=O)c1)C(C(=O)NCc1ccccc1)c1ccc(N)cc1 (stereo not shown) [A62, 3-(N-(1-(4-Aminophenyl)-2-(benzylamino)-2-oxoethyl)propiolamido)-benzamide]",> 10
8,"C#CC(=O)N(c1cccc(NC(C)=O)c1)C(C(=O)NCc1ccccc1)c1ccc(N)cc1 (stereo not shown) [A63, N-(3-Acetamidophenyl)-N-(1-(4-aminophenyl)-2-(benzylamino)-2-oxoethyl)-propiolamide]",2 to 10
9,"C#CC(=O)N(c1ccc(O)cc1)C(C(=O)NCc1ccccc1)c1ccc(N)cc1 (stereo not shown) [A64, N-(1-(4-Aminophenyl)-2-(benzylamino)-2-oxoethyl)-N-(4-hydroxyphenyl)-propiolamide]",2 to 10
10,"C#CC(=O)N(c1ccc(CO)cc1)C(C(=O)NCc1ccccc1)c1ccc(N)cc1 (stereo not shown) [A67, N-(1-(4-Aminophenyl)-2-(benzylamino)-2-oxoethyl)-N-(4-(hydroxymethyl)-phenyl)propiolamide]",0.5 to 2
11,"C#CC(=O)N(c1ccc(S(N)(=O)=O)cc1)C(C(=O)NCc1ccccc1)c1ccc(N)cc1 (stereo not shown) [A68, N-(1-(4-Aminophenyl)-2-(benzylamino)-2-oxoethyl)-N-(4-sulfamoylphenyl)-propiolamide]",> 10
12,"C#CC(=O)N(c1cccc(N)c1)C(C(=O)NCc1ccccc1)c1ccc(N)cc1 (stereo not shown) [A70, N-(3-Aminophenyl)-N-(1-(4-aminophenyl)-2-(benzylamino)-2-oxoethyl)-propiolamide]",0.5 to 2
13,"C#CC(=O)N(c1ccc(NS(C)(=O)=O)cc1)C(C(=O)NCc1ccccc1)c1ccc(N)cc1 (stereo not shown) [A71, N-(1-(4-Aminophenyl)-2-(benzylamino)-2-oxoethyl)-N-(4-(methylsulfonamido)-phenyl)propiolamide]",2 to 10
14,"C#CC(=O)N(c1cccc(Cl)c1)C(C(=O)NCc1ccccc1)C1CCOCC1 (stereo not shown) [A78, N-(2-(Benzylamino)-2-oxo-1-(tetrahydro-2H-pyran-4-yl)ethyl)-N-(3-chloro-phenyl)propiolamide]",0.5 to 2
15,"C#CC(=O)N(c1cccc(Cl)c1F)C(C(=O)NCc1ccccc1)c1ccccc1 (stereo not shown) [A81, N-(2-(Benzylamino)-2-oxo-1-phenylethyl)-N-(3-chloro-2-fluorophenyl)-propiolamide]",0.1 to 0.5
16,"C#CC(=O)N(c1cccc(Cl)c1)C(C(=O)NCc1ccccc1)c1cccc(OCC(=O)OC)c1 (stereo not shown) [A83, Methyl 2-(3-(2-(benzylamino)-1-(N-(3-chlorophenyl)propiolamido)-2-oxoethyl)-phenoxy)acetate]",0.1 to 0.5
17,"C#CC(=O)N(Cc1ccc(C(=O)OC)cc1)C(C)C(=O)NCc1ccccc1 (stereo not shown) [A84, Methyl 4-((N-(1-(benzylamino)-1-oxopropan-2-yl)propiolamido)methyl)-benzoate]",0.1 to 0.5
18,"C#CC(=O)N(c1cccc(Cl)c1)C1(C(=O)NCc2ccccc2)COC1 [A86, N-Benzyl-3-(N-(3-chlorophenyl)propiolamido)oxetane-3-carboxamide]",0.1 to 0.5

# Continued, values first:
row,EC50 [µM],SMILES
1,≤ 0.1,"C#CC(=O)N(c1ccc(C#N)cc1)C(C(=O)NCc1ccccc1)c1cccc(N)c1 (stereo not shown) [A48, N-(1-(3-Aminophenyl)-2-(benzylamino)-2-oxoethyl)-N-(4-cyanophenyl)-propiolamide]"
2,≤ 0.1,"C#CC(=O)N(c1ccc(C(=O)OC)cc1)C(C(=O)NCc1ccccc1)c1cccc(N)c1 (stereo not shown) [A49, Methyl 4-(N-(1-(3-aminophenyl)-2-(benzylamino)-2-oxoethyl)propiolamido)-benzoate]"
3,≤ 0.1,"C#CC(=O)N(c1ccc(Cl)cc1)C(C(=O)NCc1ccccc1)c1ccc(N)cc1 (stereo not shown) [A52, N-(2-(benzylamino)-1-(4-aminophenyl)-2-oxoethyl)-N-(4-chlorophenyl)propiolamide]"
4,≤ 0.1,"C#CC(=O)N(c1ccc(OC)c(Cl)c1)C(C(=O)NCc1ccccc1)c1ccc(N)cc1 (stereo not shown) [A53, N-(1-(4-Aminophenyl)-2-(benzylamino)-2-oxoethyl)-N-(3-chloro-4-methoxy-phenyl)propiolamide]"
5,≤ 0.1,"C#CC(=O)N(c1cccc(C(=O)OC)c1)C(C(=O)NCc1ccccc1)c1ccc(N)cc1 (stereo not shown) [A54, Methyl 3-(N-(1-(4-aminophenyl)-2-(benzylamino)-2-oxoethyl)propiolamido)-benzoate]"
6,0.1 to 0.5,"C#CC(=O)N(c1cccc(C#N)c1)C(C(=O)NCc1ccccc1)c1ccc(N)cc1 (stereo not shown) [A55, N-(1-(4-Aminophenyl)-2-(benzylamino)-2-oxoethyl)-N-(3-cyanophenyl)-propiolamide]"
7,≤ 0.1,"C#CC(=O)N(c1cc(Cl)ccc1F)C(C(=O)NCc1ccccc1)c1ccc(N)cc1 (stereo not shown) [A57, N-(1-(4-Aminophenyl)-2-(benzylamino)-2-oxoethyl)-N-(5-chloro-2-fluoro-phenyl)propiolamide]"
8,0.1 to 0.5,"C#CC(=O)N(c1cccc(F)c1)C(C(=O)NCc1ccccc1)c1ccc(N)cc1 (stereo not shown) [A59, N-(1-(4-Aminophenyl)-2-(benzylamino)-2-oxoethyl)-N-(3-fluorophenyl)-propiolamide]"
9,≤ 0.1,"C#CC(=O)N(c1ccc(OC)cc1)C(C(=O)NCc1ccccc1)c1ccc(N)cc1 (stereo not shown) [A60, N-(1-(4-Aminophenyl)-2-(benzylamino)-2-oxoethyl)-N-(4-methoxyphenyl)-propiolamide]"
10,≤ 0.1,"C#CC(=O)N(c1cccc(OC)c1)C(C(=O)NCc1ccccc1)c1ccc(N)cc1 (stereo not shown) [A61, N-(1-(4-Aminophenyl)-2-(benzylamino)-2-oxoethyl)-N-(3-methoxyphenyl)-propiolamide]"
11,≤ 0.1,"C#CC(=O)N(c1ccc(Cl)c(Cl)c1)C(C(=O)NCc1ccccc1)c1ccc(N)cc1 (stereo not shown) [A65, N-(1-(4-Aminophenyl)-2-(benzylamino)-2-oxoethyl)-N-(3,4-dichlorophenyl)-propiolamide]"
12,≤ 0.1,"C#CC(=O)N(c1ccc(C#N)cc1)C(C(=O)NCc1ccccc1)c1ccc(N)cc1 (stereo not shown) [A66, N-(1-(4-Aminophenyl)-2-(benzylamino)-2-oxoethyl)-N-(4-cyanophenyl)-propiolamide]"
13,≤ 0.1,"C#CC(=O)N(c1ccc(C(=O)OC)cc1)C(C(=O)NCc1ccccc1)c1ccc(N)cc1 (stereo not shown) [A69, Methyl 4-(N-(1-(4-aminophenyl)-2-(benzylamino)-2-oxoethyl)propiolamido)-benzoate]"
14,0.1 to 0.5,"C#CC(=O)N(c1cccc(Cl)c1)C(C(=O)NCc1ccccc1)C1CC1 (stereo not shown) [A72, N-(2-(benzylamino)-1-cyclopropyl-2-oxoethyl)-N-(3-chlorophenyl)propiolamide]"
15,≤ 0.1,"C#CC(=O)N(c1cccc(C(=O)OC)c1)C(C(=O)NCc1ccccc1)c1cccs1 (stereo not shown) [A73, Methyl 3-(N-(2-(benzylamino)-2-oxo-1-(thiophen-2-yl)ethyl)propiolamido)-benzoate]"
16,≤ 0.1,"C#CC(=O)N(c1cccc(Cl)c1)C(C(=O)NCc1ccccc1)c1ccccc1 (stereo not shown) [A74, N-(2-(Benzylamino)-2-oxo-1-phenylethyl)-N-(3-chlorophenyl)propiolamide]"
17,≤ 0.1,"C#CC(=O)N(c1cccc(Cl)c1)C(C(=O)NCc1ccccc1)c1cccs1 (stereo not shown) [A75, N-(2-(Benzylamino)-2-oxo-1-(thiophen-2-yl)ethyl)-N-(3-chlorophenyl)-propiolamide]"
18,≤ 0.1,"C#CC(=O)N(c1cccc(C(=O)OC)c1)C(C(=O)NCc1ccccc1)c1ccccc1 (stereo not shown) [A76, Methyl 3-(N-(2-(benzylamino)-2-oxo-1-phenylethyl)propiolamido)benzoate]"
19,0.1 to 0.5,"C#CC(=O)N(c1cccc(Cl)c1)C(C(=O)NCc1ccccc1)C1CCC(C(=O)OC)CC1 (stereo not shown) [A77, Methyl 4-(2-(benzylamino)-1-(N-(3-chlorophenyl)propiolamido)-2-oxoethyl)-cyclohexane-1-carboxylate]"
20,≤ 0.1,"C#CC(=O)N(c1cccc(Cl)c1)C1(C(=O)NCc2ccccc2)CCC(C(=O)OC)CC1 (stereo not shown) [A79, Methyl 4-(benzylcarbamoyl)-4-(N-(3-chlorophenyl)propiolamido)-cyclohexane-carboxylate]"
21,≤ 0.1,"C#CC(=O)N(c1cccc(Cl)c1Cl)C(C(=O)NCc1ccccc1)c1ccccc1 (stereo not shown) [A82, N-(2-(Benzylamino)-2-oxo-1-phenylethyl)-N-(2,3-dichlorophenyl)-propiolamide]"
22,≤ 0.1,"C#CC(=O)N(c1cccc2nsnc12)C(C(=O)NCc1ccccc1)c1ccccc1 (stereo not shown) [A85, N-(Benzo[c][1,2,5]thiadiazol-4-yl)-N-(2-(benzylamino)-2-oxo-1-phenylethyl)-propiolamide]"
